Literature values as cited in PubChem BioAssay AID1259409 (Chemical Carcinogenesis Research Information System (CCRIS), 2018).

System: rodent chemically induced tumor inhibition, incidence and multiplicity
Experiment: CCRIS tumor inhibitor studies
Conditions: Route [Inhibitor]: ORAL, Species: HAMSTER, Promoter: NONE USED

For CC1=C(/C=C/C(C)=C/C=C/C(C)=C/C(=O)NCCO)C(C)(C)CCC1, the “tumour outcome (control, treated, inhibition, significance)” value (Carcinogen: N-NITROBIS(2-OXOPROPYL)AMINE, 60559-38-4, Dose [Inhibitor]: 0.5 OR 1.0 MMOL/KG DIET DAILY STARTING 1 WK AFTER CARCINOGEN TREATMENT AND CONTINUING THROUGH THE END OF THE STUDY (STUD, Strain/Sex: SYRIAN/MALE, Target Tissue: Type of Lesion: PANCREAS: DUCTULAR CARCINOMA, Dose [Carcinogen]: 10 MG/KG BW ONCE) is listed as 4/22 (18%), 7/37 (19%), -6%, not significant, the “tumour outcome (control, treated, inhibition, significance)” value (Carcinogen: N-NITROBIS(2-OXOPROPYL)AMINE, 60559-38-4, Dose [Inhibitor]: 0.5 OR 1.0 MMOL/KG DIET DAILY STARTING 1 WK AFTER CARCINOGEN TREATMENT AND CONTINUING THROUGH THE END OF THE STUDY (STUD, Strain/Sex: SYRIAN/MALE, Target Tissue: Type of Lesion: PANCREAS: DUCTULAR CARCINOMA, Dose [Carcinogen]: 40 MG/KG BW ONCE) is listed as 5/24 (21%), 20/42 (48%), -129%, not significant and the “tumour outcome (control, treated, inhibition, significance)” value (Carcinogen: N-NITROBIS(2-OXOPROPYL)AMINE, 60559-38-4, Dose [Inhibitor]: 0.5 OR 1.0 MMOL/KG IN DIET STARTING 1 WK AFTER CARCINOGEN TREATMENT AND CONTINUING THROUGH THE END OF THE STUDY (STUDY D, Strain/Sex: SYRIAN/FEMALE, Target Tissue: Type of Lesion: LIVER: BENIGN TUMOR, Dose [Carcinogen]: 40 MG/KG BW ONCE) is listed as 4/20 (20%), 17/35 (49%), -145%, not significant. For the same compound, the “tumour outcome (control, treated, inhibition, significance)” value (Carcinogen: N-NITROBIS(2-OXOPROPYL)AMINE, 60559-38-4, Dose [Inhibitor]: 0.5 OR 1.0 MMOL/KG IN DIET STARTING 1 WK AFTER CARCINOGEN TREATMENT AND CONTINUING THROUGH THE END OF THE STUDY (STUDY D, Strain/Sex: SYRIAN/FEMALE, Target Tissue: Type of Lesion: PANCREAS: DUCTULAR ADENOMA, Dose [Carcinogen]: 10 MG/KG BW ONCE) was 5/23 (23%), 10/37 (27%), -17%, not significant, the “tumour outcome (control, treated, inhibition, significance)” value (Carcinogen: N-NITROBIS(2-OXOPROPYL)AMINE, 60559-38-4, Dose [Inhibitor]: 0.5 OR 1.0 MMOL/KG IN DIET STARTING 1 WK AFTER CARCINOGEN TREATMENT AND CONTINUING THROUGH THE END OF THE STUDY (STUDY D, Strain/Sex: SYRIAN/FEMALE, Target Tissue: Type of Lesion: PANCREAS: DUCTULAR ADENOMA, Dose [Carcinogen]: 40 MG/KG BW ONCE) was 12/20 (60%), 27/33 (82%), -37%, not significant and the “tumour outcome (control, treated, inhibition, significance)” value (Carcinogen: N-NITROBIS(2-OXOPROPYL)AMINE, 60559-38-4, Dose [Inhibitor]: 0.5 OR 1.0 MMOL/KG IN DIET STARTING 1 WK AFTER CARCINOGEN TREATMENT AND CONTINUING THROUGH THE END OF THE STUDY (STUDY D, Strain/Sex: SYRIAN/FEMALE, Target Tissue: Type of Lesion: PANCREAS: DUCTULAR CARCINOMA, Dose [Carcinogen]: 40 MG/KG BW ONCE) was 6/20 (30%), 8/33 (24%), 20%, not significant. The “tumour outcome (control, treated, inhibition, significance)” value (Carcinogen: N-NITROBIS(2-OXOPROPYL)AMINE, 60559-38-4, Dose [Inhibitor]: 0.5 OR 1.0 MMOL/KG IN DIET STARTING 1 WK AFTER CARCINOGEN TREATMENT AND CONTINUING THROUGH THE END OF THE STUDY (STUDY D, Strain/Sex: SYRIAN/MALE, Target Tissue: Type of Lesion: LIVER: BENIGN TUMOR, Dose [Carcinogen]: 40 MG/KG BW ONCE) was 5/24 (21%), 26/42 (62%), -195%, p<0.05, the “tumour outcome (control, treated, inhibition, significance)” value (Carcinogen: N-NITROBIS(2-OXOPROPYL)AMINE, 60559-38-4, Dose [Inhibitor]: 0.5 OR 1.0 MMOL/KG IN DIET STARTING 1 WK AFTER CARCINOGEN TREATMENT AND CONTINUING THROUGH THE END OF THE STUDY (STUDY D, Strain/Sex: SYRIAN/MALE, Target Tissue: Type of Lesion: PANCREAS: DUCTULAR ADENOMA, Dose [Carcinogen]: 10 MG/KG BW ONCE) was 3/22 (14%), 16/37 (43%), -207%, not significant and the “tumour outcome (control, treated, inhibition, significance)” value (Carcinogen: N-NITROBIS(2-OXOPROPYL)AMINE, 60559-38-4, Dose [Inhibitor]: 0.5 OR 1.0 MMOL/KG IN DIET STARTING 1 WK AFTER CARCINOGEN TREATMENT AND CONTINUING THROUGH THE END OF THE STUDY (STUDY D, Strain/Sex: SYRIAN/MALE, Target Tissue: Type of Lesion: PANCREAS: DUCTULAR ADENOMA, Dose [Carcinogen]: 40 MG/KG BW ONCE) was 8/24 (33%), 34/42 (81%), -145%, not significant. For the same compound, the “tumour outcome (control, treated, inhibition, significance)” value (Carcinogen: N-NITROBIS(2-OXOPROPYL)AMINE, 60559-38-4, Dose [Inhibitor]: 0.5 OR 1.0 MMOL/KG IN DIET STARTING 1 WK AFTER CARCINOGEN TREATMENT AND CONTINUING THROUGH THE END OF THE STUDY (STUDY D, Strain/Sex: SYRIAN/MALE, Target Tissue: Type of Lesion: PANCREAS: DUCTULAR CARCINOMA, Dose [Carcinogen]: 10 MG/KG BW SINGLE INJECTION) was 4/22 (18%), 7/37 (19%), -6%, not significant, the “tumour outcome (control, treated, inhibition, significance)” value (Carcinogen: N-NITROBIS(2-OXOPROPYL)AMINE, 60559-38-4, Dose [Inhibitor]: 0.5 OR 1.0 MMOL/KG IN DIET STARTING 1 WK AFTER CARCINOGEN TREATMENT AND CONTINUING THROUGH THE END OF THE STUDY (STUDY D, Strain/Sex: SYRIAN/MALE, Target Tissue: Type of Lesion: PANCREAS: DUCTULAR CARCINOMA, Dose [Carcinogen]: 40 MG/KG BW ONCE) was 5/24 (21%), 20/42 (48%), -129%, not significant and the “tumour outcome (control, treated, inhibition, significance)” value (Carcinogen: N-NITROSOBIS(2-OXYPROPYL)AMINE, 60599-38-4, Dose [Inhibitor]: 0.05, 0.1 OR 0.2 MILLIMOLAR/KG DIET FOR 32 WK STARTING 1 WK AFTER CARCINOGEN DOSE (STUDY DURATION: 33 WK), Strain/Sex: SYRIAN/FEMALE, Target Tissue: Type of Lesion: LIVER: ADENOMA, Dose [Carcinogen]: 40 MG/KG ONCE) was 6/10 (60%), 6/29 (21%), 65%, p<0.025.
